Results on seven compounds are retold here after ChEMBL document CHEMBL1201862, “PubChem BioAssay data set” (2004).

Test systems include OVCAR-5; CCRF-CEM; SK-MEL-28; SK-OV-3; SK-MEL-5; HCT-116; A498; SK-MEL-2; MCF7; HCT-15; OVCAR-8; SF-295; SNB-19; COLO 205; Hs-578T; DU-145; HCC 2998; SNB-75; HOP-92; A549.
Experiment in all cases: DTP human tumour cell line panel, 48 h

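Five concentrations, 48 hours, 96-well plates. At the GI50, growth is halved.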 The source made the active and inactive calls. No stated cut-off is given here; in the data, active = GI50 up to about 1.1 µM and inactive = higher.

One may read the GI50 as the concentration at which growth is held to half of that of the control.

For `NC(=S)N/N=C/C1NCCC2CCCCC21` (stereo not given), the GI50 in the assay with OVCAR-5 is 0.796 µM (active); in the assay with CCRF-CEM it was 0.31 µM (active); with SK-MEL-28 it was 2.38 µM (inactive); in the assay on SK-OV-3, 0.37 µM (active); in the assay with SK-MEL-5, 0.118 µM (active); in the assay on HCT-116 it was 0.281 µM (active). The GI50 in the assay on A498 is 0.17 µM (active); with SK-MEL-2 it was 0.824 µM (active); in the assay on MCF7, 0.59 µM (active); with HCT-15, 0.0895 µM; in the assay on OVCAR-8 it was 0.149 µM (active); with SF-295 it was 0.0673 µM (active). For the same compound, the GI50 with SNB-19 is 0.35 µM (active); with COLO 205 it was 0.373 µM (active); in the assay on Hs-578T, 1.15 µM (inactive); in the assay on DU-145, 0.173 µM (active); with HCC 2998, 0.108 µM (active); in the assay on SNB-75, 24.2 µM (inactive). Also, the figures for the GI50 with HOP-92 and in the assay on A549 were 0.0641 µM (active) and 0.262 µM (active), respectively.
Take `CSC1SCC2C(=O)N(C)C3(CC3C)C(=O)OCC(NC(=O)c3nc4ccccc4cc3O)C(=O)NC(C)C(=O)N(C)C1C(=O)N(C)C1(CC1C)C(=O)OCC(NC(=O)c1nc3ccccc3cc1O)C(=O)NC(C)C(=O)N2C` (stereo not given): the GI50 in the assay with OVCAR-5, in the assay with CCRF-CEM, with SK-MEL-28, with SK-OV-3, in the assay on SK-MEL-5 and with HCT-116 was < 0.0001 µM (active) each time. For the same compound, the GI50 in the assay with A498 was < 0.0001 µM (active); in the assay on SK-MEL-2, < 0.0001 µM (active); in the assay on MCF7, < 0.0001 µM (active); in the assay with HCT-15, 0.0146 µM; in the assay with OVCAR-8 it was < 0.0001 µM (active); in the assay with SF-295 it was < 0.0001 µM (active). The GI50 in the assay with SNB-19, in the assay with COLO 205, in the assay on Hs-578T, in the assay with DU-145, with HCC 2998 and in the assay on SNB-75 was < 0.0001 µM (active) each time. For the same compound, the GI50 with HOP-92 and with A549 was < 0.0001 µM (active) in each case.
`O=C(Nc1ccc2[nH]c(C(=O)N3CC(CCl)c4c3cc([N+](=O)[O-])c3ccccc43)cc2c1)c1cc2ccccc2o1` (stereo not given): the GI50 in the assay on OVCAR-5 is > 100 µM (inactive); in the assay on CCRF-CEM, 46.1 µM (inactive); in the assay on SK-MEL-28, > 58.1 µM (inactive); in the assay with SK-OV-3, > 100 µM (inactive); in the assay with SK-MEL-5, > 100 µM (inactive); in the assay with HCT-116, > 100 µM (inactive). The GI50 was > 57.7 µM (inactive) with A498; > 57 µM (inactive) with SK-MEL-2; 23 µM (inactive) in the assay on MCF7; over 63.4 µM in the assay on HCT-15; > 55.6 µM (inactive) with OVCAR-8; 395 µM (inactive) in the assay on SF-295. In addition, the GI50 in the assay with SNB-19 was > 100 µM (inactive); in the assay with COLO 205, > 58.1 µM (inactive); in the assay with Hs-578T it was > 100 µM (inactive); in the assay with DU-145 it was > 51.6 µM (inactive); in the assay on HCC 2998, > 46.9 µM (inactive); in the assay on SNB-75, > 56.6 µM (inactive). The GI50 with HOP-92 was > 58.5 µM (inactive); in the assay with A549, > 100 µM (inactive).
As for `Cc1cc(C)nc(NS(=O)(=O)c2ccc(Nc3c4ccccc4nc4ccc(C(=O)Nc5ccc(S(=O)(=O)N=C(N)N)cc5)cc34)cc2)n1`, the GI50 with OVCAR-5 was > 100 µM (inactive); in the assay with CCRF-CEM, 31 µM (inactive); in the assay on SK-MEL-28, > 100 µM (inactive); with SK-OV-3 it was > 100 µM (inactive); in the assay on SK-MEL-5, 97.3 µM (inactive); with HCT-116 it was 70.1 µM (inactive). In addition, the GI50 in the assay with A498 is > 100 µM (inactive); with SK-MEL-2, > 100 µM (inactive); in the assay on MCF7 it was 23.2 µM (inactive); with HCT-15, 33.3 µM; in the assay with OVCAR-8, > 100 µM (inactive); in the assay on SF-295 it was > 100 µM (inactive). The GI50 in the assay with SNB-19, in the assay on COLO 205, in the assay on Hs-578T, with DU-145, in the assay with HCC 2998 and in the assay with SNB-75 was > 100 µM (inactive) throughout. Further, the values for the GI50 in the assay on HOP-92 and in the assay on A549 were 26 µM (inactive) and > 100 µM (inactive), respectively.
On to `COc1ccc(/C=C/C(=O)c2ccccc2)cc1OC`, for which the GI50 was 16.9 µM (inactive) in the assay on OVCAR-5; 2.53 µM (inactive) in the assay with CCRF-CEM; 21.1 µM (inactive) with SK-MEL-28; 14.2 µM (inactive) with SK-OV-3; 16.8 µM (inactive) in the assay on SK-MEL-5; 6.38 µM (inactive) in the assay on HCT-116. Further, the GI50 in the assay with A498 was 16.4 µM (inactive); in the assay on SK-MEL-2 it was 17.3 µM (inactive); with MCF7, 2.52 µM (inactive); with HCT-15, 7.03 µM; in the assay with OVCAR-8 it was 16.3 µM (inactive); with SF-295 it was 16.4 µM (inactive). Besides, the GI50 in the assay with SNB-19 was 11.2 µM (inactive); with COLO 205, 15.9 µM (inactive); with Hs-578T, 25 µM (inactive); in the assay on DU-145 it was 11.4 µM (inactive); in the assay with HCC 2998, 17.9 µM (inactive); in the assay with SNB-75, 14 µM (inactive). The values for the GI50 in the assay with HOP-92 and in the assay on A549 were 18.5 µM (inactive) and 20.9 µM (inactive), respectively.
Regarding `C=CC(COC(=O)C(C)(C)OC(C)=O)c1ccc(OC(=O)C(C)C)c(OC)c1` (stereo not given), the GI50 was 14.6 µM (inactive) in the assay with OVCAR-5; 2.78 µM (inactive) with CCRF-CEM; 5.19 µM (inactive) in the assay on SK-MEL-28; 16.5 µM (inactive) in the assay on SK-OV-3; 13.5 µM (inactive) with SK-MEL-5; 4.05 µM (inactive) with HCT-116. Moreover, the GI50 is 17.2 µM (inactive) in the assay on A498; 9.62 µM (inactive) in the assay on SK-MEL-2; 2.51 µM (inactive) in the assay on MCF7; 2.03 µM in the assay with HCT-15; 9.82 µM (inactive) in the assay with OVCAR-8; 4.23 µM (inactive) with SF-295. The GI50 in the assay on SNB-19 is 11.1 µM (inactive); with COLO 205, 2.46 µM (inactive); in the assay on Hs-578T, 7.46 µM (inactive); with DU-145, 11.2 µM (inactive); in the assay on HCC 2998 it was 3.66 µM (inactive); with SNB-75 it was 7.16 µM (inactive). For the same compound, the GI50 with HOP-92 was 2.73 µM (inactive); in the assay with A549 it was 19.8 µM (inactive).
Consider `CC12CCCCC1=C(F)C(F)(F)S2` (stereo not given), for which the GI50 in the assay with OVCAR-5 is 62.5 µM (inactive); in the assay with CCRF-CEM, 8.65 µM (inactive); with SK-MEL-28, 28 µM (inactive); with SK-OV-3, > 100 µM (inactive); in the assay with SK-MEL-5 it was 46.3 µM (inactive); with HCT-116 it was 22.1 µM (inactive). The GI50 with A498 is > 100 µM (inactive); in the assay on SK-MEL-2 it was 75.2 µM (inactive); in the assay with MCF7, 34.4 µM (inactive); in the assay on HCT-15 it was 32.7 µM; in the assay with OVCAR-8 it was 35.8 µM (inactive); in the assay on SF-295, 41.9 µM (inactive). The GI50 with SNB-19 was > 100 µM (inactive); with COLO 205, 15.1 µM (inactive); in the assay with Hs-578T, > 21.5 µM (inactive); with DU-145, > 89.1 µM (inactive); with HCC 2998, > 67.1 µM (inactive); in the assay with SNB-75 it was > 70.6 µM (inactive). In addition, the GI50 with HOP-92 is 23.6 µM (inactive); in the assay with A549, > 79.3 µM (inactive).
